In US20120225135A1 (priority 2010, published 2012):

Columns and labels:
[1] = system: E. coli
[2] = system: Fecal Coli; test: Disinfection of effluents, fecal coli; type: cell-based; details: for Fecal Coli: ClO2 dose 9.86 mg/L, 30 minutes; for Fecal Coli EC Media per 100 mL: trickling filters effluents
[3] = system: Pichia (Hansenula) anomala (20 percent sporulated); test: Microbiological effectiveness at cold temperatures; type: cell-based
[4] = system: Total Count; test: Disinfection of effluents, total count; type: cell-based; details: for Total Count: effluents, ClO2 dose 9.86 mg/L, 30 minutes; for Total Count per 100 mL: trickling filters effluents
[5] = system: Total microbio counts
[6] = Processing of potatoes, micro-biological control of process water
[7] = system: Confirmed Coliform; test: Disinfection of effluents, confirmed coliforms; type: cell-based; details: for Confirmed Coliforms: effluents, ClO2 dose 9.86 mg/L, 30 minutes; for Confirmed Coliform per 100 mL: trickling filters effluents
[8] = system: Poliovirus type 1, ATCC VR-59; type: cell-based; details: pH 9
[9] = system: Salmonella choleraesuis, ATCC 10708; type: cell-based; details: pH 5
[10] = system: biofilm; details: cited from earlier work
[11] = system: E. coli; test: Sanitation of fishing holds, E. coli; details: cleaned surface sprayed with 10 ppm ClO2 solution
From the text: Gross filth removed and washed in detergent
Cleaned surface sprayed with 10 ppm ClO2 solution

[12] = system: Total Plate Count (microbiological surface contamination)
[13] = ClO2 dose 2.7 mg/L, contact time 5 min
[14] = ClO2 dose 2.7 mg/L, contact time 20 min
[15] = ClO2 dose 2.7 mg/L, contact time 35 min
[16] = ClO2 dose 5.0 mg/L, contact time 15 min
[17] = ClO2 dose 10.8 mg/L, contact time 5 min
[18] = ClO2 dose 10.8 mg/L, contact time 20 min
[19] = ClO2 dose 10.8 mg/L, contact time 35 min
[20] = ClO2 dose 5.0 mg/L, contact time 30 min

[O][Cl+][O-] [Chlorine Dioxide, chlorine dioxide]
E. coli on cut lettuce [1]: always zero | Fecal Coli ([2]; effluents, pH initial 4.6, final 4.4): 2 MPN per 100 ml | Fecal Coli ([2]; effluents, pH initial 5.5, final 5.6): 2 MPN per 100 ml | Fecal Coli ([2]; effluents, pH initial 6.5, final 6.7): 0 MPN per 100 ml | Fecal Coli ([2]; effluents, pH initial 7.5, final 7.6): 1.8 MPN per 100 ml | Fecal Coli ([2]; effluents, pH initial 8.2, final 8.1): 23 MPN per 100 ml | Fecal Coli ([2]; effluents, pH initial 9.1, final 9.2): 2.7 × 10^2 MPN per 100 ml | Fecal Coli ([2]; effluents, pH initial 10.0, final 10.0): 1.3 × 10^4 MPN per 100 ml | kill of fecal coli ([2]; effluents, dose 2.7 mg/L ClO2, 30 min. contact time): 98.9% | fecal coli organisms survived ([2]; effluents, dose 10.8 mg/L ClO2, 30 min. contact time): two | Fecal Coli EC Media per 100 mL [2, 13]: 2.4 × 10^7 per 100 mL | Fecal Coli EC Media per 100 mL [2, 14]: 1.3 × 10^7 per 100 mL | Fecal Coli EC Media per 100 mL [2, 15]: 3.5 × 10^5 per 100 mL | Fecal Coli EC Media per 100 mL [2, 16]: 2.4 × 10^6 per 100 mL | Fecal Coli EC Media per 100 mL [2, 17]: 9.2 × 10^2 per 100 mL | Fecal Coli EC Media per 100 mL [2, 18]: 14 per 100 mL | Fecal Coli EC Media per 100 mL [2, 19]: 2 per 100 mL | Deactivation (%) [3]: 99.999% | Total Count ([4]; pH initial 4.6, final 4.4): 5 MPN per 100 ml | Total Count ([4]; pH initial 5.5, final 5.6): 15 MPN per 100 ml | Total Count ([4]; pH initial 6.5, final 6.7): 30 MPN per 100 ml | Total Count ([4]; pH initial 7.5, final 7.6): 1 × 10^2 MPN per 100 ml | Total Count ([4]; pH initial 8.2, final 8.1): 2 × 10^2 MPN per 100 ml | Total Count ([4]; pH initial 9.1, final 9.2): 2.5 × 10^3 MPN per 100 ml | Total Count ([4]; pH initial 10.0, final 10.0): 6.8 × 10^2 MPN per 100 ml | Total Count per 100 mL [4, 13]: 6.75 × 10^7 per 100 mL | Total Count per 100 mL [4, 14]: 5.3 × 10^7 per 100 mL | Total Count per 100 mL [4, 15]: 3.1 × 10^7 per 100 mL | Total Count per 100 mL [4, 16]: 2.0 × 10^6 per 100 mL | Total Count per 100 mL [4, 20]: 1.6 × 10^5 per 100 mL | Total Count per 100 mL ([4]; ClO2 dose 5.0 mg/L, contact time 45 min): 9.0 × 10^4 per 100 mL | Total Count per 100 mL [4, 17]: 1.2 × 10^5 per 100 mL | Total Count per 100 mL [4, 18]: 2.9 × 10^4 per 100 mL | Total Count per 100 mL [4, 19]: 2.5 × 10^4 per 100 mL | Total microbio counts [5]: 1-5 organisms/ml | micro-biological control compared with chlorine [6]: better micro-biological control agent than chlorine at 5-10 ppm | Confirmed Coliforms ([7]; pH initial 4.6, final 4.4): 2 MPN per 100 ml | Confirmed Coliforms ([7]; pH initial 5.5, final 5.6): 2 MPN per 100 ml | Confirmed Coliforms ([7]; pH initial 6.5, final 6.7): 4.5 MPN per 100 ml | Confirmed Coliforms ([7]; pH initial 7.5, final 7.6): 17 MPN per 100 ml | Confirmed Coliforms ([7]; pH initial 8.2, final 8.1): 33 MPN per 100 ml | Confirmed Coliforms ([7]; pH initial 9.1, final 9.2): 7.9 × 10^2 MPN per 100 ml | Confirmed Coliforms ([7]; pH initial 10.0, final 10.0): 1.3 × 10^4 MPN per 100 ml | Confirmed Coliform per 100 mL [7, 13]: 1.3 × 10^7 per 100 mL | Confirmed Coliform per 100 mL [7, 14]: 2.4 × 10^7 per 100 mL | Confirmed Coliform per 100 mL [7, 15]: 2.4 × 10^6 per 100 mL | Confirmed Coliform per 100 mL [7, 16]: 2.4 × 10^6 per 100 mL | Confirmed Coliform per 100 mL [7, 20]: 1.1 × 10^2 per 100 mL | Confirmed Coliform per 100 mL [7, 17]: 1.3 × 10^3 per 100 mL | Confirmed Coliform per 100 mL [7, 18]: 14 per 100 mL | Confirmed Coliform per 100 mL [7, 19]: 7.8 per 100 mL | reduction in titer [8]: > 4 log 10 | reduction in titer [9]: > 6 log 10 | detachment of biofilms [10]: very effective | E. coli [11]: below level of detection | TPC at day zero [12]: less than 7×10^4
